Values of other authors in patent publication US9114107B2, “Compositions for inhibiting virus entry and promoting virolysis, and methods thereof” (priority 2010, dated 2015).

System: virus challenge
Conditions: cited from earlier work

## COc1ccnc2[nH]cc(C(=O)C(=O)N3CCN(C(=O)c4ccccc4)C[C@H]3C)c12 [BMS-806, (R)-1-(4-benzoyl-2-methylpiperazin-1-yl)-2-(4-methoxy-1H-pyrrolo[2,3-b]pyridin-3-yl)ethane-1,2-dione]
Biopsy after multiple applications
  local irritation or inflammation of macaque vagina: No local irritation or inflammation was observed
Macaques challenged with virus 2-6 hours after application
  animals protected: 3 of 5
